Test results as given in patent US20250195490A1, “ALPHA-METHYLENE AND AMINOMETHYL LACTONES AND LACTAMS FOR TREATMENT OF CLOSTRIDIOIDES DIFFICILE INFECTION (CDI)” (Purdue Research Foundation, priority 2022, published 2025).
Values after ≈ are worked out from the molar mass of the structure shown.

Legend:
[1] = tested on: MRSA (USA300); experiment: microbe, parasite or virus in culture; format: cell-based, Staphylococcus aureus; conditions: aerobic, 37° C., at least 18 hours
Experimental: (§1) Method: The minimum inhibitory concentration (MIC) of the compounds and control drugs, linezolid (antibiotic), vancomycin (antibiotic), 5-fluorocytosine (5-FC, antifungal drug), and fluconazole (antifungal drug) was determined using the broth microdilution method according to the guidelines outlined by the Clinical and Laboratory Standards Institute (CLSI) against clinically relevant bacterial (methicillin-resistant Staphylococcus aureus (MRSA), vancomycin-resistant Enterococcus faecalis (VRE), vancomycin-resistant Enterococcus faecium (VRE), Clostridioides difficile and Escherichia coli) and fungal (Candida albicans) strains. A solution equivalent to 0.5 McFarland standard was prepared from each strain and diluted in cation-adjusted Mueller-Hinton broth (for S. aureus and E. coli), tryptone soy broth (for E. faecalis), or brain heart infusion broth (for E. faecium) to achieve a bacterial inoculum of about 5×10^5 CFU/mL. C. difficile strains were cultured in brain heart infusion broth supplemented with hemin and vitamin K. C. albicans was diluted in RPMI medium supplemented with 3-(N-morpholino) propanesulfonic acid to achieve a fungal concentration of about 1.5×10^3 CFU/mL. Compounds and control drugs were added in the first row of the 96-well plates and diluted with media containing bacteria (to achieve a concentration gradient ranging from 128 to 1 μg/mL). For MRSA, VRE, and E. coli strains, plates were then incubated aerobically at 37° C. for at least 18 hours. C. albicans was incubated aerobically at 37° C. for 24 hours. Plates containing C. difficile were incubated anaerobically at […] for 48 hours.

[2] = tested on: E. faecalis (VRE); experiment: microbe, parasite or virus in culture; format: cell-based, Enterococcus faecalis; conditions: aerobic, 37° C., at least 18 hours
Experimental: as §1

[3] = tested on: Clostridioides difficile; experiment: MIC by broth microdilution against Clostridioides difficile (Table 1); format: cell-based; conditions: anaerobic, 48 hours; strain BAA-1870
Experimental: as §1

[4] = tested on: E. coli (TolC mutant); experiment: MIC by broth microdilution against E. coli (TolC mutant); format: cell-based, Escherichia coli; conditions: aerobic, 37° C., at least 18 hours
Experimental: as §1

[5] = tested on: hypervirulent Clostridioides difficile strains; experiment: MIC against hypervirulent Clostridioides difficile strains; format: cell-based
Experimental: (§2) The antibacterial activity of compounds 48, 50, 51, 61 and 85 against a panel of Clostridioides difficile strains was evaluated. A bacterial solution equivalent to 0.5 McFarland standard was prepared and diluted in brain heart infusion broth supplemented with hemin and vitamin K. Compounds and control drugs were added in the first row of 96-well plates and serially diluted with media containing bacteria (to achieve a concentration gradient ranging from 128 to 1 μg/mL). Plates were then incubated anaerobically at […] for 48 hours.

[6] = tested on: clinically important Clostridioides difficile strains; experiment: MIC against clinically important Clostridioides difficile strains; format: cell-based
Experimental: as §2

[7] = tested on: L. gasseri; experiment: MIC against human normal gut microbiota: L. gasseri; format: cell-based, Lactobacillus gasseri; conditions: L. gasseri HM 407
Description: (§3) The activity of the selected lactones against the human gut microbiota was also examined. Microbiota interfere with C. difficile's ability to colonize the gastrointestinal tract and subsequently cause infection. Many antibiotics inhibit/kill the endogenous microflora, which permits enhanced colonization by C. difficile and infection. Three different bacterial species that are present in the gut microflora were used in this experiment; Bifidobacterium (anaerobic Gram-positive bacteria), Bacteroides (anaerobic Gram-negative bacteria) and Lactobacillus (microaerophilic Gram-positive bacteria). Ideal compounds/drugs are those with selective antibacterial activity against C. difficile so as to protect the indigenous microflora present in the GI tract from being damaged/killed (which will exacerbate infections caused by C. difficile).
(§4) Bifidobacterium and Bacteroides were first grown for 48 hours at 37° C., anaerobically, using brain heart infusion supplemented (BHIS) agar (brain heart infusion agar supplemented with hemin, vitamin K and L-cysteine). Lactobacillus was cultivated on MRS agar and incubated in the presence of 5% CO2 for 48 hours at 37° C. Each bacterium was suspended in phosphate-buffered saline (PBS) to achieve 0.5 McFarland standard and subsequently diluted in brain heart infusion supplemented broth (for Bifidobacterium and Bacteroides) or in MRS broth (for Lactobacillus) to achieve a bacterial inoculum of approximately 5×10^5 CFU/mL. Bacteria were then seeded in 96-well plates containing serial dilutions of the compounds and incubated for 48 hours. MICs reported in Table 4 are the minimum concentration of compound/control drug that inhibited the visual growth of bacteria.

[8] = tested on: L. casei; experiment: MIC against human normal gut microbiota: L. casei; format: cell-based, Lactobacillus casei; conditions: L. casei HM 334
Description: as §3, §4

[9] = tested on: L. reuteri; experiment: MIC against human normal gut microbiota: L. reuteri; format: cell-based, Lactobacillus reuteri; conditions: L. reuteri HM 120
Description: as §3, §4

[10] = tested on: L. crispatus; experiment: MIC against human normal gut microbiota: L. crispatus; format: cell-based, Lactobacillus crispatus
Description: as §3, §4

[11] = tested on: Ba. fragilis; experiment: MIC against human normal gut microbiota: Bacteroides fragilis; format: cell-based
Description: as §3, §4

[12] = tested on: Ba. dorsei; experiment: MIC against human normal gut microbiota: Bacteroides dorsei; format: cell-based
Description: as §3, §4

[13] = tested on: Bi. breve; experiment: MIC against human normal gut microbiota: Bifidobacterium breve; format: cell-based; conditions: Bi. breve HM 856
Description: as §3, §4

[14] = tested on: Bi. longum; experiment: MIC against human normal gut microbiota: Bifidobacterium longum; format: cell-based; conditions: Bi. longum HM 848
Description: as §3, §4

[15] = tested on: C. albicans; experiment: Broth microdilution against Candida albicans; format: cell-based; conditions: gradient 128 to 1 μg/mL, 24 hours
Experimental: as §1

[16] = tested on: E. faecium; experiment: Broth microdilution against vancomycin-resistant E. faecium; format: cell-based, Enterococcus faecium; conditions: gradient 128 to 1 μg/mL
Experimental: as §1

CC(C)(C)[Si](C)(C)OCCC1OC(=O)C(CN2CCCCC2)C1c1cccc(Br)c1 (racemic) [Compound 48]
MIC MRSA (USA300) [1]: >128 µg/mL | MIC E. faecalis (VRE) [2]: >128 µg/mL | MIC Clostridioides difficile [3]: 8 µg/mL (≈ 16.1 µM) | MIC E. coli (TolC mutant) [4]: >128 µg/mL | MIC ([5]; CD strain 81): 16 µg/mL (≈ 32.2 µM) | MIC ([5]; CD strain 82): 8 µg/mL (≈ 16.1 µM) | MIC ([5]; CD strain 83): 8 µg/mL (≈ 16.1 µM) | MIC ([5]; CD strain 84): 8 µg/mL (≈ 16.1 µM) | MIC ([5]; CD strain 85): 8 µg/mL (≈ 16.1 µM) | MIC ([5]; CD strain 86): 8 µg/mL (≈ 16.1 µM) | MIC ([5]; CD strain 87): 4 µg/mL (≈ 8.06 µM) | MIC ([5]; CD strain 90): 4 µg/mL (≈ 8.06 µM) | MIC ([5]; CD strain 49279): 8 µg/mL (≈ 16.1 µM) | MIC ([5]; CD strain 49287): 4 µg/mL (≈ 8.06 µM) | MIC ([5]; CD strain 49291): 4 µg/mL (≈ 8.06 µM) | MIC ([6]; CD strain 16): 4 µg/mL (≈ 8.06 µM) | MIC ([6]; CD strain 18): 2 µg/mL (≈ 4.03 µM) | MIC ([6]; CD strain 19): 4 µg/mL (≈ 8.06 µM) | MIC ([6]; CD strain 1801): 8 µg/mL (≈ 16.1 µM) | MIC ([6]; CD strain 43255): 8 µg/mL (≈ 16.1 µM) | MIC ([6]; CD strain P6): 8 µg/mL (≈ 16.1 µM) | MIC ([6]; CD strain P7): 2 µg/mL (≈ 4.03 µM) | MIC ([6]; CD strain P13): 2 µg/mL (≈ 4.03 µM) | MIC ([6]; CD strain P19): 2 µg/mL (≈ 4.03 µM) | MIC [7]: >128 µg/mL | MIC [8]: >128 µg/mL | MIC [9]: >128 µg/mL | MIC ([10]; L. crispatus HM 375): >128 µg/mL | MIC ([10]; L. crispatus HM 421): >128 µg/mL | MIC ([11]; Ba. fragilis HM 709): >128 µg/mL | MIC ([11]; Ba. fragilis HM 710): >128 µg/mL | MIC ([11]; Ba. fragilis HM 711): >128 µg/mL | MIC ([11]; Ba. fragilis HM 714): >128 µg/mL | MIC ([12]; Ba. dorsei HM 29): >128 µg/mL | MIC ([12]; Ba. dorsei HM 717): >128 µg/mL | MIC [13]: >128 µg/mL | MIC [14]: >128 µg/mL | activity against C. albicans [15]: inactive | inhibition of the tested strains of E. faecium [16]: did not inhibit

C=C1C(=O)OC(CCCCCCCC)C1C=Cc1ccccc1 (racemic) [Compound 51]
MIC MRSA (USA300) [1]: >128 µg/mL | MIC E. faecalis (VRE) [2]: >128 µg/mL | MIC Clostridioides difficile [3]: 8 µg/mL (≈ 25.6 µM) | MIC E. coli (TolC mutant) [4]: >128 µg/mL | MIC ([5]; CD strain 81): 16 µg/mL (≈ 51.2 µM) | MIC ([5]; CD strain 82): 16 µg/mL (≈ 51.2 µM) | MIC ([5]; CD strain 83): 16 µg/mL (≈ 51.2 µM) | MIC ([5]; CD strain 84): 64 µg/mL (≈ 205 µM) | MIC ([5]; CD strain 85): 64 µg/mL (≈ 205 µM) | MIC ([5]; CD strain 86): 32 µg/mL (≈ 102 µM) | MIC ([5]; CD strain 87): 32 µg/mL (≈ 102 µM) | MIC ([5]; CD strain 90): 4 µg/mL (≈ 12.8 µM) | MIC ([5]; CD strain 49279): 16 µg/mL (≈ 51.2 µM) | MIC ([5]; CD strain 49287): 8 µg/mL (≈ 25.6 µM) | MIC ([5]; CD strain 49291): 8 µg/mL (≈ 25.6 µM) | MIC ([6]; CD strain 16): 16 µg/mL (≈ 51.2 µM) | MIC ([6]; CD strain 18): 2 µg/mL (≈ 6.4 µM) | MIC ([6]; CD strain 19): 16 µg/mL (≈ 51.2 µM) | MIC ([6]; CD strain 1801): 32 µg/mL (≈ 102 µM) | MIC ([6]; CD strain 43255): 16 µg/mL (≈ 51.2 µM) | MIC ([6]; CD strain P6): 8 µg/mL (≈ 25.6 µM) | MIC ([6]; CD strain P7): 16 µg/mL (≈ 51.2 µM) | MIC ([6]; CD strain P13): 2 µg/mL (≈ 6.4 µM) | MIC ([6]; CD strain P19): 16 µg/mL (≈ 51.2 µM) | MIC [7]: >128 µg/mL | MIC [8]: >128 µg/mL | MIC [9]: >128 µg/mL | MIC ([10]; L. crispatus HM 375): >128 µg/mL | MIC ([10]; L. crispatus HM 421): >128 µg/mL | MIC ([11]; Ba. fragilis HM 709): >128 µg/mL | MIC ([11]; Ba. fragilis HM 710): >128 µg/mL | MIC ([11]; Ba. fragilis HM 711): >128 µg/mL | MIC ([11]; Ba. fragilis HM 714): >128 µg/mL | MIC ([12]; Ba. dorsei HM 29): >128 µg/mL | MIC ([12]; Ba. dorsei HM 717): >128 µg/mL | MIC [13]: >128 µg/mL | MIC [14]: >128 µg/mL | activity against C. albicans [15]: inactive | inhibition of the tested strains of E. faecium [16]: did not inhibit
